Values belong to the compound of their own block, whether it stands above or below them.
Tests used:
A549 [1] = assay: Effective concentration for inhibition of interleukin-6 in human A549 lung carcinoma cell line using […]% radiolabeled Dexamethasone; type: functional, cell-based
Glucocorticoid receptor [2] = biological target: T1, Glucocorticoid receptor (Homo sapiens, UniProt P04150); assay: Inhibition of human glucocorticoid receptor alpha isoform
T1 sequence (P04150 whole entry): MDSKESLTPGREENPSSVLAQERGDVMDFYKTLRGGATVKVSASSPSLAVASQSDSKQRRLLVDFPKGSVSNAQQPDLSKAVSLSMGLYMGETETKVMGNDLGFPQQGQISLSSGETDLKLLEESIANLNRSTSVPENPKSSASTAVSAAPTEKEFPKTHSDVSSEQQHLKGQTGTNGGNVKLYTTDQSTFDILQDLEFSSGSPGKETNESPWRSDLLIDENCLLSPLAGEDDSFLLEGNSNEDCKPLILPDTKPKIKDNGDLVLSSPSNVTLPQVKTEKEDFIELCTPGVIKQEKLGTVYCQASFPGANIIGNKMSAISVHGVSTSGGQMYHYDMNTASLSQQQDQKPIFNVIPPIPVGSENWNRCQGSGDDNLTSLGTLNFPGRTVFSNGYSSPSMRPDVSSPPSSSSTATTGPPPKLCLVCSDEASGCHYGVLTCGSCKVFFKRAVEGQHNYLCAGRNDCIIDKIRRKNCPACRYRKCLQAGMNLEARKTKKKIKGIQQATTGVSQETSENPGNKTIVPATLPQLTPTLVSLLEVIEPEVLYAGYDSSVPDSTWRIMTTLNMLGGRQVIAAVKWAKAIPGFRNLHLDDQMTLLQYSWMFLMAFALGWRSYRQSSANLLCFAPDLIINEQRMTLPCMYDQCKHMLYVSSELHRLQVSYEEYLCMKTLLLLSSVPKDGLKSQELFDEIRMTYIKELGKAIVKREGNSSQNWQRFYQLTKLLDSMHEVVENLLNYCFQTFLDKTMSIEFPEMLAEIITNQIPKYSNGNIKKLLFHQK

[3] = Effective concentration required for induction of glutamine synthetase in human skeletal muscle cells using 58% radiolabeled Dexamethasone; type: functional
Estrogen receptor = biological target: T2, Estrogen receptor (Homo sapiens, UniProt P03372); assay: Binding affinity for human estrogen receptor alpha
T2 sequence (P03372 whole entry): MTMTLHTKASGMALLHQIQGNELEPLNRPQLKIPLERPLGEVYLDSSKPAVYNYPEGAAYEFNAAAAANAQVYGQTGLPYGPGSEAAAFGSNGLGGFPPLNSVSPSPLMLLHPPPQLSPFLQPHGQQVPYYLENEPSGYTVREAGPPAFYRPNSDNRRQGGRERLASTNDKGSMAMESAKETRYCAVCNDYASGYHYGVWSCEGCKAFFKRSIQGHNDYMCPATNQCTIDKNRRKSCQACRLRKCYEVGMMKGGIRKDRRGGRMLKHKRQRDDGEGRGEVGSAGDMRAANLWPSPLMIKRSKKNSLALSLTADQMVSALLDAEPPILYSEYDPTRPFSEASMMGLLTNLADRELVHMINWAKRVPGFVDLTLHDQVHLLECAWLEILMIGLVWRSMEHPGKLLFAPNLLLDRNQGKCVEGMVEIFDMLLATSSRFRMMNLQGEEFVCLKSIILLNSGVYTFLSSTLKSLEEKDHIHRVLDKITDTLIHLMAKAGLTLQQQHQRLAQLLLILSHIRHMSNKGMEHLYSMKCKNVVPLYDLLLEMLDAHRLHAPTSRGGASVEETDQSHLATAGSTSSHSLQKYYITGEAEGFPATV

Glucocorticoid receptor [4] = biological target: T1, Glucocorticoid receptor; assay: Binding affinity for human glucocorticoid receptor
Estrogen receptor beta = Estrogen receptor beta (Homo sapiens, UniProt Q92731); assay: Binding affinity for human estrogen receptor beta
[5] = biological target: T3, Mineralocorticoid receptor (Rattus norvegicus, UniProt P22199); assay: Binding affinity for rat mineralocorticoid receptor
T3 sequence (P22199 whole entry): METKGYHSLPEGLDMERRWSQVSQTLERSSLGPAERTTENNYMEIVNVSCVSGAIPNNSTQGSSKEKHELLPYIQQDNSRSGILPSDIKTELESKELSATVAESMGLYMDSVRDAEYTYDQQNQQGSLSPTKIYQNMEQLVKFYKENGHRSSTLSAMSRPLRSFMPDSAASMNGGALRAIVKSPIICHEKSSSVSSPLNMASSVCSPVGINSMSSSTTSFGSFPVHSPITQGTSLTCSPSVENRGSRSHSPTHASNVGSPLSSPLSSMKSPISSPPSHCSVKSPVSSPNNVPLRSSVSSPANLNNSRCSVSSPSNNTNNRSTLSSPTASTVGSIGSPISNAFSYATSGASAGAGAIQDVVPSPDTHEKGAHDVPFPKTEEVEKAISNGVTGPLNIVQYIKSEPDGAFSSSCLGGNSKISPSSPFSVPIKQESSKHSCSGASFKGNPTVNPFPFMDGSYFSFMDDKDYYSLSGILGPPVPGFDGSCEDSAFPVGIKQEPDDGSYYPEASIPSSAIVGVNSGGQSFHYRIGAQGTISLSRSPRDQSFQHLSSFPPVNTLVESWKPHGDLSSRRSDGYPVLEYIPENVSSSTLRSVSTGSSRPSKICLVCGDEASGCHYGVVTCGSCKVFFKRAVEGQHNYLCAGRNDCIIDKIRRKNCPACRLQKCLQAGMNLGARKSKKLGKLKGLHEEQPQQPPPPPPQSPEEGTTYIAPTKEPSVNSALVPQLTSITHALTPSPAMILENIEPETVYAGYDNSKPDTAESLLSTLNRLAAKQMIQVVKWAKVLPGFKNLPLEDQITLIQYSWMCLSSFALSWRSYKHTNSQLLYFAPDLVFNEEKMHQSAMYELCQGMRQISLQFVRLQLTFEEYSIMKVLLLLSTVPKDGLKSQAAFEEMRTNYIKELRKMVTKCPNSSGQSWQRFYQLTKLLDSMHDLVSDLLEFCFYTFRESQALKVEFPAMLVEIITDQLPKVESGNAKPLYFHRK

Progesterone receptor = biological target: T4, Progesterone receptor (Homo sapiens, UniProt P06401); assay: Binding affinity for human progesterone receptor
T4 sequence (P06401 whole entry): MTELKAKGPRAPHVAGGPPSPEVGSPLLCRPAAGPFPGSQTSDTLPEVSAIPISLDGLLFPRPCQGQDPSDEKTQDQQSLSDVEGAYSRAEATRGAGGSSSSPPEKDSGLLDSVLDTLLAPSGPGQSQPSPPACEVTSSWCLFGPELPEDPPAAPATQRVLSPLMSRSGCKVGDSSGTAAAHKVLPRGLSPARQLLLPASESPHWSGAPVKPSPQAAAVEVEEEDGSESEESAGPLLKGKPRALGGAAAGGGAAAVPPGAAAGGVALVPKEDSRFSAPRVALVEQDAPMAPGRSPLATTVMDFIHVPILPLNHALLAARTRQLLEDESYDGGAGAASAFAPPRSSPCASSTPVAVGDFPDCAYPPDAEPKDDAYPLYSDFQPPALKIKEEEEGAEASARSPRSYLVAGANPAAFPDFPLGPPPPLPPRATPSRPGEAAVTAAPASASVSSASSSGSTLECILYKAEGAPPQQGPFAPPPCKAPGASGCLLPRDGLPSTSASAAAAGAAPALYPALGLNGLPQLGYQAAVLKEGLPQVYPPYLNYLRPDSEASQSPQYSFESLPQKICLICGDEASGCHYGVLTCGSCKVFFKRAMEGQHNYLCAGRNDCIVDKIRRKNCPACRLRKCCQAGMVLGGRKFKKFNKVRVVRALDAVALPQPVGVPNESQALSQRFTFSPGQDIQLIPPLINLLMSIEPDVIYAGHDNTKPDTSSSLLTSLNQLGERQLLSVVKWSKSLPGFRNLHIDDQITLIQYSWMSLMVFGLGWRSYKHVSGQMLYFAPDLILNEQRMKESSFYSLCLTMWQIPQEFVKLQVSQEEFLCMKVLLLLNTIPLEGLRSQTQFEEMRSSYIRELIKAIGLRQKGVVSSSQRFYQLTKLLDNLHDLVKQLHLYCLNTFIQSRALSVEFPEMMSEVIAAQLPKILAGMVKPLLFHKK

Mus musculus [6] = species: Mus musculus; assay: Effective concentration required for inhibition of interleukin-6 in mouse thioglycolate-elicited peritoneal exudate cell line using 95% radiolabeled Dexamethasone; type: functional
A549 [7] = assay: Effective concentration required for inhibition of interleukin-6 in human A549 lung carcinoma cell line using 102% radiolabeled Dexamethasone; type: functional, cell-based
HepG2 = assay: Effective concentration required for induction of tyrosine aminotransferase in human HepG2 cells using 81% radiolabeled Dexamethasone; type: functional, cell-based
[8] = Effective concentration required for induction of glutamine synthetase in human skeletal muscle cells using 97% radiolabeled Dexamethasone; type: functional
A549 [9] = assay: Effective concentration for inhibition of interleukin-6 in human A549 lung carcinoma cell line using 69% radiolabeled Dexamethasone; type: functional, cell-based
Mus musculus [10] = species: Mus musculus; assay: Effective concentration required for inhibition of interleukin-6 in mouse thioglycolate-elicited peritoneal exudate cell line using 66% radiolabeled Dexamethasone; type: functional

Chain of Estrogen receptor beta (Q92731 whole entry): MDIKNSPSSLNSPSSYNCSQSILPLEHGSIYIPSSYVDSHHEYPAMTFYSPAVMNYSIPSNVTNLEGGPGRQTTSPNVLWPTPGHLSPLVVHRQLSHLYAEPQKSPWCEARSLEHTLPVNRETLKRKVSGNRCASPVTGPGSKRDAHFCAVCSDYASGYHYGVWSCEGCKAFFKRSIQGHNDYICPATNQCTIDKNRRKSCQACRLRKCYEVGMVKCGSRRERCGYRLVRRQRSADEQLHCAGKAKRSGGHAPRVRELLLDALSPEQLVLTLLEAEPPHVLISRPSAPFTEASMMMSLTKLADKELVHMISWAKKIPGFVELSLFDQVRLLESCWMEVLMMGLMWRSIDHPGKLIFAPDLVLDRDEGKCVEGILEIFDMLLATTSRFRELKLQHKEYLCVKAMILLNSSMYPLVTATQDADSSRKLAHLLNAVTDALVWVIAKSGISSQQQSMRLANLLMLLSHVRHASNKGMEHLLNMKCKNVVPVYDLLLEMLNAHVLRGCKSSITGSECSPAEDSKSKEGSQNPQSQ

EC50 (A549 [1]): 12 nM | IC50 (Glucocorticoid receptor [2]): 28 nM
SMILES: CC1(C)COC2(CCC3=Cc4c(cnn4-c4ccc(F)cc4)C[C@@]32C)OC1

IC50 (Glucocorticoid receptor [2]): 8.9 nM | EC50 [3]: 29 nM
SMILES: CCC[C@H]1OC2(CCCC3=Cc4c(cnn4-c4ccc(F)cc4)C[C@@]32C)O[C@@H]1CCC

IC50 (Estrogen receptor): > 10000 nM | IC50 (Glucocorticoid receptor [4]): 24 nM | IC50 (Estrogen receptor beta): > 10000 nM | IC50 (Glucocorticoid receptor [2]): 24 nM | IC50 [5]: > 10000 nM | IC50 (Progesterone receptor): > 1000 nM
SMILES: C[C@H]1OC2(CCC3=Cc4c(cnn4-c4ccc(F)cc4)C[C@@]32C)O[C@@H]1C

IC50 (Glucocorticoid receptor [2]): 10 nM
SMILES: C[C@H]1OC2(CCCC3=Cc4c(cnn4-c4ccc(F)cc4)C[C@@]32C)O[C@@H]1C

IC50 (Glucocorticoid receptor [2]): 65 nM
SMILES: C[C@]12Cc3cnn(-c4ccc(F)cc4)c3C=C1CC[C@@]21OC[C@H](c2ccccc2)O1

IC50 (Glucocorticoid receptor [2]): 8.4 nM
SMILES: C[C@@H]1C[C@@H](C)OC2(CCC3=Cc4c(cnn4-c4ccc(F)cc4)C[C@@]32C)O1 (stereo in doubt; form 2)

EC50 (Mus musculus [6]): 5.7 nM | EC50 (A549 [7]): 4.5 nM | IC50 (Glucocorticoid receptor [2]): 13.8 nM | EC50 (HepG2): 211 nM | EC50 [8]: 32 nM
SMILES: C[C@]12Cc3cnn(-c4ccc(F)cc4)c3C=C1CCC21OCCO1 (stereo in doubt; 2)

IC50 (Glucocorticoid receptor [2]): 8.3 nM
SMILES: C[C@@H]1C[C@@H](C)OC2(CCCC3=Cc4c(cnn4-c4ccc(F)cc4)C[C@@]32C)O1 (stereo partly drawn)

EC50 (A549 [9]): 28 nM | IC50 (Estrogen receptor): > 10000 nM | IC50 (Glucocorticoid receptor [4]): 73 nM | IC50 (Estrogen receptor beta): > 10000 nM | IC50 (Glucocorticoid receptor [2]): 73 nM | IC50 [5]: > 10000 nM | IC50 (Progesterone receptor): > 1000 nM
SMILES: C[C@]12Cc3cnn(-c4ccc(F)cc4)c3C=C1CCC21OCCO1 (stereo in doubt; 13)

SMILES: C[C@]12Cc3cnn(-c4ccc(F)cc4)c3C=C1CCCC21O[C@H](c2ccccc2)[C@@H](c2ccccc2)O1
EC50 (Mus musculus [10]): 26 nM | IC50 (Glucocorticoid receptor [2]): 10 nM

Reference: ChEMBL document CHEMBL1139605, “Novel ketal ligands for the glucocorticoid receptor: in vitro and in vivo activity” (Bioorg Med Chem Lett, 2005)
